From patent publication US20210381060A1, “CANCER SPECIFIC IMMUNOTHERAPEUTIC TARGETS GENERATED BY CHEMOTHERAPEUTIC DRUG TREATMENT” (Health Research, Inc., priority 2018, published 2021)

Columns and labels:
MCF10A p53+/+ cell line = experiment: RT-PCR of cell cycle progression gene mRNA after 5-FU exposure; format: cell-based, human; conditions: 300 μM 5-FU for 24 h
Method: (§1) FIG. 2. […] P53 mutant MDA-MB-231 cells, p53wt MCF10A cells, and MCF10A cells with biallelic frameshift mutation in the p53 gene were treated or untreated with 300uM of 5-FU for 24 h. NMD was inhibited or not with 10 mM caffeine for 4 h before cytoplasmic RNA isolation. “*” symbols indicate RT-PCR amplicons with retained introns.
(§2) The following breast cell lines were used: MDA-MB-231 p53−/−, MCF10A p53+/+ cell line and the derivative of MCF10A p53−/−, all treated or untreated with 300 μM of 5-FU for 24 h. In addition, the NMD pathway was inhibited or not inhibited with caffeine for 4 h before cytoplasmic RNA isolation in order to detect the mRNA species that are degraded due to stop codons contained within retained introns.

MCF10A p53−/− = experiment: RT-PCR analysis of intron retention after 5-FU exposure; format: cell-based, human; conditions: 300 μM 5-FU for 24 h
Method: as §1, §2

MDA-MB-231 p53−/− = experiment: as above; format: cell-based, human; conditions: 300 μM 5-FU for 24 h
Method: as §1, §2

Meth A tumor cells = experiment: Tumor challenge with 5FU-treated or untreated Meth A cells, tumor growth; format: in vivo, BALB/cJ mice; conditions: for growth of 5-FU treated vs un-treated Meth A cells in vivo (AUC): FIG. 3A, in vitro 5-FU treatment alone, P=0.07; for growth of 5-FU-treated vs un-treated Meth A cells (AUC) in mice previously immunized with 5-FU-treated 4T1 cells: challenge one week after 4T1, P=0.003
Method: (§3) FIG. 3. BALB/cJ mice were challenged (on the left flank) at day 0 with 150,000 5FU- treated or untreated 4T1 tumor cells. Seven days after the first tumor challenge, they were challenged (on the right flank) with 95,000 5FU- treated or untreated Meth A tumor cells and growth of both tumors was measured. […] Each line represents tumor growth in a single mouse. […] B. (Top panel) 4T1 (un-treated or in vitro-5FU treated) growth curves in 5FU-treated mice (5FU i.p. 100 mg/kg at day -7, 50 mg/kg at day 0 and 20 mg/kg every three days after the first tumor challenge). […] (Bottom panel) The same mice as the top panel were challenged with un-treated or 5FU-treated Meth A cells, one week after challenge with 4T1 cells.
(§4) As known in the art, 4T1 cells are a breast cancer cell line derived from the mammary gland tissue of mouse. Meth A cancer cells are methyl-cholantrene-induced mouse sarcoma cells. […] This Example analyzes whether treatment with 5-FU generates new antigenic entities (such as CiPAS), and if treatment of both cell types produces the same antigens in both cells. If this process occurs, the antigens should be processed and presented identically in both cells of the BALB/c haplotype.
(§5) First, we tested if treatment of cells in vitro with 5-FU, in and of itself, makes the cancer cells grow differently because of cell death, or another phenomenon.

MCF10A p53−/− KO cells = experiment: RNA-Seq detection of CiPAS (retained-intron polypeptides); format: cell-based, human; conditions: cells treated with 5-FU and caffeine, not detected with caffeine alone
Description: (§6) The following Table 1 provides predicted-CiPAS and includes polypeptide sequences encoded by introns detected with high confidence in RNA-Seq generated from MDA-MB-231 and MCF10A p53−/− KO cells treated with 5-FU and caffeine and not detected in cells treated with caffeine alone. 38 and 76 CiPAS were detected in MDA-MB-231 and MCF10A p53−/− KO cells, respectively, including 18 shared CiPAS. Certain representative and non-limiting chemo-neoepitopes encoded by the CiPaS sequences are shown in bold, with overlapping amino acids in italics.

MDA-MB-231 = experiment: as above; format: cell-based, human
Description: as §6

4T1 tumor cells = experiment: Tumor challenge with 5FU-treated or untreated 4T1 cells, tumor growth; format: in vivo, BALB/cJ mice; conditions: FIG. 3B top, 5FU-treated mice (i.p. 100 mg/kg day -7, 50 mg/kg day 0, 20 mg/kg every three days)
Method: as §3, §4, §5

In the case of `O=c1[nH]cc(F)c(=O)[nH]1` [5-FU, 5-fluorouracil], the “number of genes with overexpressed introns in 5-FU treated 4T1 samples” value (4T1 cells) is reported as 804 genes, the “number of introns overexpressed in 5-FU treated 4T1 samples” value (4T1 cells) is reported as 991 introns and the “MCM10 mRNA in response to 5-FU” value (MCF10A p53+/+ cell line; data not shown) is reported as “repressed”. The “transcription of the mRNA of the CCNE2 cell cycle progression gene in response to 5-FU” value (MCF10A p53+/+ cell line; only in MCF10A cells with p53+/+) was “repressed”, the “extent of retention of 6th intron of the CCNE2 gene” value (MCF10A p53−/−) was “the whole intron is retained” and the “intron retention in MCM10 and CCNE2 genes in response to 5-FU” value (MCF10A p53−/−; only in cells with mutant p53) was “intron retention”. The “extent of retention of 6th intron of the CCNE2 gene” value (MDA-MB-231 p53−/−) was “only part of the 6th intron of the CCNE2 gene is retained”, the “intron retention in MCM10 and CCNE2 genes in response to 5-FU” value (MDA-MB-231 p53−/−; only in cells with mutant p53) was “intron retention” and the “growth of 5-FU treated vs un-treated Meth A cells in vivo (AUC)” value (Meth A tumor cells) was “grow identically”. For the same compound, the “growth of 5-FU treated vs un-treated Meth A cells in vivo (AUC)” value (Meth A tumor cells; listed as 5FU) was “grow similarly”, the “slower growth of 5-FU-treated Meth A cells in mice previously challenged with 5-FU-untreated 4T1 cells” value (Meth A tumor cells; FIG. 3B bottom) was “not seen” and the “growth of 5-FU-treated vs un-treated Meth A cells (AUC) in mice previously immunized with 5-FU-treated 4T1 cells” value (Meth A tumor cells; FIG. 3B bottom) was “grow more slowly”. The “growth of 5-FU-treated vs un-treated Meth A cells (AUC) in mice previously immunized with 5-FU-treated 4T1 cells” value (Meth A tumor cells; FIG. 3B bottom, listed as 5FU) was “significantly lower”, the “number of CiPAS detected” value (MCF10A p53−/− KO cells) was 76 CiPAS and the “number of CiPAS detected” value (MDA-MB-231; cells treated with 5-FU and caffeine, not detected with caffeine alone) was 38 CiPAS. For the same compound, the “number of shared CiPAS” value (MDA-MB-231; shared between MDA-MB-231 and MCF10A p53−/− KO cells, 5-FU and caffeine) was 18 CiPAS, the “growth of 5-FU treated vs un-treated 4T1 cells in vivo (AUC)” value (4T1 tumor cells) was “grow essentially identically” and the “growth of 5-FU treated vs un-treated 4T1 cells in vivo (AUC)” value (4T1 tumor cells; listed as 5FU) was “grow the same”.
